Experimental data: US10105357B2, “Indication of antibiotic drugs for preparation of cancer inhibition pharmaceutical composition” (LAUNX BIOMEDICAL CO., LTD., priority 2014, dated 2018)
Structures can show the parent of a compound that is named as a salt. Where two headings read alike, the source gives them in different places.

How the values were obtained:
Assay type in all cases: cell-based, human
cancer cell lines = assay: Cell viability analysis (WST-1) on cancer cell lines; settings: drug 10 μM, 72 hours, WST-1; Table 3
[1] = system: HI650 (Lung Adenocarcinoma); assay: Cell viability analysis, lung cancer HI650; settings: for viability at 10 µM: Homo sapiens
[2] = system: A549 (Lung Adenocarcinoma); assay: Cell viability analysis, lung cancer A549; settings: for viability at 10 µM: Homo sapiens
[3] = system: AGS (Gastric Adenocarcinoma); assay: Cell viability analysis, gastric cancer AGS; settings: for viability at 10 µM: Homo sapiens
[4] = system: MKN-45 (Gastric Adenocarcinoma); assay: Cell viability analysis, gastric cancer MKN-45; settings: for viability at 10 µM: Homo sapiens
[5] = system: HepG2 (Hepatocellular Carcinoma); assay: Cell viability analysis, hepatic cancer HepG2; settings: for viability at 10 µM: Homo sapiens
[6] = system: LoVo (Colorectal Adenocarcinoma); assay: Cell viability analysis, colon cancer LoVo; settings: Homo sapiens, LoVo, 72 h, read-out: cell viability (survival rate), LoVo, drug 10 μM, 72 hours, WST-1, OD450 nm
[7] = system: A375 (Amelanotic Melanoma); assay: Cell viability analysis, skin cancer A375; settings: for viability at 10 µM: Homo sapiens
[8] = system: HeLa (Cervix Adenocarcinoma); assay: Cell viability analysis, cervical cancer HeLa; settings: Homo sapiens, HeLa
[9] = system: PC3 (p53−) (Prostate Adenocarcinoma); assay: Cell viability analysis, prostate cancer PC3; settings: for viability at 10 µM: Homo sapiens
[10] = system: TSGH-8301 (Urinary Bladder Carcinoma); assay: Cell viability analysis, bladder cancer TSGH-8301; settings: for viability at 10 µM: Homo sapiens
[11] = system: HL-60 (Acute Promyelocytic Leukemia); assay: Cell viability analysis, leukemia HL-60; settings: for viability at 10 µM: Homo sapiens
[12] = system: MCF7 (Mammary Gland, Adenocarcinoma); assay: Cell viability analysis, breast cancer MCF7; settings: Homo sapiens, MCF7, 72 h
[13] = NCI-H1650, 72 h, read-out: cell viability (survival rate), H1650, drug 10 μM, 72 hours, WST-1, OD450 nm
[14] = A549, 72 h, read-out: cell viability (survival rate), A549, drug 10 μM, 72 hours, WST-1, OD450 nm
[15] = 72 h, read-out: cell viability (survival rate), AGS, drug 10 μM, 72 hours, WST-1, OD450 nm
[16] = MKN-45, 72 h, read-out: cell viability (survival rate), MKN-45, drug 10 μM, 72 hours, WST-1, OD450 nm
[17] = HepG2, 72 h, read-out: cell viability (survival rate), HepG2, drug 10 μM, 72 hours, WST-1, OD450 nm
[18] = A-375, 72 h, read-out: cell viability (survival rate), A375, drug 10 μM, 72 hours, WST-1, OD450 nm
[19] = 72 h, read-out: cell viability (survival rate), HeLa, drug 10 μM, 72 hours, WST-1, OD450 nm
[20] = 72 h, read-out: cell viability (survival rate), PC3, drug 10 μM, 72 hours, WST-1, OD450 nm
[21] = 72 h, read-out: cell viability (survival rate), TSGH, drug 10 μM, 72 hours, WST-1, OD450 nm
[22] = HL-60, 72 h, read-out: cell viability (survival rate), HL-60, drug 10 μM, 72 hours, WST-1, OD450 nm
[23] = read-out: cell viability (survival rate), MCF7, drug 10 μM, 72 hours, WST-1, OD450 nm
[24] = drug 10 μM, 72 hours, WST-1, OD450 nm

| Compound | inhibition effect on different cancer cell lines (cancer cell lines) | viability at 10 µM [1, 13] [%] | viability at 10 µM [2, 14] [%] | viability at 10 µM [3, 15] [%] | viability at 10 µM [4, 16] [%] | viability at 10 µM [5, 17] [%] | viability at 10 µM [6] [%] | viability at 10 µM [7, 18] [%] | viability at 10 µM [8, 19] [%] | viability at 10 µM [9, 20] [%] | viability at 10 µM [10, 21] [%] | viability at 10 µM [11, 22] [%] | viability at 10 µM [12, 23] [%] | other results |
| --- | --- | --- | --- | --- | --- | --- | --- | --- | --- | --- | --- | --- | --- | --- |
| OC(Cn1cncn1)(Cn1cncn1)c1ccc(F)cc1F [Fluconazole] | significant inhibition effect | 45.3 | 125 | 50.2 | 76.2 | 97.4 | 102 | 76.9 | 79.2 | 97.7 | 66.1 | 106 |  |  |
| CN1[C@@H]2CC[C@H]1C[C@@H](OC(c1ccccc1)c1ccccc1)C2 [Benztropine mesylate] | significant inhibition effect | 91.7 | 68.2 | 83 | 89.4 | 86 | 81.4 | 67.5 | 95.3 | 75.3 |  | 81.1 | 63.3 |  |
| Caspofungin acetate | significant inhibition effect |  |  |  |  |  |  |  |  |  |  |  |  | cell viability (survival rate), H1650 [1, 24]: 37.1; cell viability (survival rate), A549 [2, 24]: 78.4; cell viability (survival rate), AGS [3, 24]: 94.2; cell viability (survival rate), MKN-45 [4, 24]: 36.4; cell viability (survival rate), HepG2 [5, 24]: 95.3; cell viability (survival rate), A375 [7, 24]: 70.5; cell viability (survival rate), PC3 [9, 24]: 59.4; cell viability (survival rate), TSGH [10, 24]: 123.7; cell viability (survival rate), HL-60 [11, 24]: 124.4 |
| O=C(N[C@H](CO)[C@H](O)c1ccc([N+](=O)[O-])cc1)C(Cl)Cl [Chloramphenicol (Chloromycetin), Chloramphenicol] | significant inhibition effect | 75.6 | 96.3 | 90.6 | 66.8 | 93.6 |  | 114 | 85 | 120 | 83.5 | 105 | 89.1 |  |
| CCN1CCN(C(=O)N[C@@H](C(=O)N[C@@H]2C(=O)N3C(C(=O)O)=C(CSc4nnnn4C)CS[C@H]23)c2ccc(O)cc2)C(=O)C1=O [Cefoperazone (Cefobid), Cefoperazone] | significant inhibition effect | 98.4 | 76.5 | 98.6 | 51.6 |  | 105 | 90 | 91.7 | 104 | 60.3 | 111 | 50.1 |  |
| O=c1[nH]c(=O)n([C@H]2C[C@H](O)[C@@H](CO)O2)cc1I [Idoxuridine] | significant inhibition effect | 82.8 | 58.5 | 68.7 | 80.8 | 122 | 72.7 | 81.5 |  | 57.8 | 88 | 96.1 | 47.3 |  |
| CC[C@H]1OC(=O)[C@H](C)[C@@H](O[C@H]2C[C@@](C)(OC)[C@@H](O)[C@H](C)O2)[C@H](C)[C@@H](O[C@@H]2O[C@H](C)C[C@H](N(C)C)[C@H]2O)[C@](C)(O)C[C@@H](C)C(=O)[C@H](C)[C@@H](O)[C@]1(C)O [Erythromycin (E-Mycin), Erythromycin] | significant inhibition effect | 90.4 | 63.8 | 27.7 | 53.2 | 93.5 | 85.5 |  | 93 | 86 | 42.6 | 111 | 45.2 |  |
| Cc1cc(-n2c(=O)[nH]c(=O)n(C)c2=O)ccc1Oc1ccc(SC(F)(F)F)cc1 [toltrazuril] | significant inhibition effect |  |  |  |  |  | 61.9 |  |  |  |  |  |  | viability at 10 µM ([1]; NCI-H1650, 72 h, drug 10 μM, 72 hours, WST-1, OD450 nm, read-out: cell viability (survival rate), H1650): 70.9%; viability at 10 µM ([2]; A549, 72 h, drug 10 μM, 72 hours, WST-1, OD450 nm, read-out: cell viability (survival rate), A549): 61.2%; viability at 10 µM ([3]; 72 h, drug 10 μM, 72 hours, WST-1, OD450 nm, read-out: cell viability (survival rate), AGS): 26.3%; viability at 10 µM ([5]; HepG2, 72 h, drug 10 μM, 72 hours, WST-1, OD450 nm, read-out: cell viability (survival rate), HepG2): 62.2%; viability at 10 µM ([7]; A-375, 72 h, drug 10 μM, 72 hours, WST-1, OD450 nm, read-out: cell viability (survival rate), A375): 27.7%; viability at 10 µM ([8]; 72 h, drug 10 μM, 72 hours, WST-1, OD450 nm, read-out: cell viability (survival rate), HeLa): 70.1%; viability at 10 µM ([9]; 72 h, drug 10 μM, 72 hours, WST-1, OD450 nm, read-out: cell viability (survival rate), PC3): 30.3%; viability at 10 µM ([10]; 72 h, drug 10 μM, 72 hours, WST-1, OD450 nm, read-out: cell viability (survival rate), TSGH): 34.8%; viability at 10 µM ([12]; drug 10 μM, 72 hours, WST-1, OD450 nm, read-out: cell viability (survival rate), MCF7): 67.4%; viability at 10 µM ([11]; HL-60, 72 h, drug 10 μM, 72 hours, WST-1, OD450 nm, read-out: cell viability (survival rate), HL-60): 73.1% |
| CC(C)(C)C(=O)C(Oc1ccc(Cl)cc1)n1ccnc1 (stereo not drawn) [Climbazole] | significant inhibition effect |  |  |  |  |  |  |  |  |  |  |  |  | viability at 10 µM ([1]; NCI-H1650, drug 10 μM, 72 hours, WST-1, OD450 nm, read-out: cell viability (survival rate), H1650): 84.2%; viability at 10 µM ([2]; A549, drug 10 μM, 72 hours, WST-1, OD450 nm, read-out: cell viability (survival rate), A549): 72.7%; viability at 10 µM ([3]; drug 10 μM, 72 hours, WST-1, OD450 nm, read-out: cell viability (survival rate), AGS): 93.3%; viability at 10 µM ([4]; MKN-45, drug 10 μM, 72 hours, WST-1, OD450 nm, read-out: cell viability (survival rate), MKN-45): 97.7%; viability at 10 µM ([5]; HepG2, drug 10 μM, 72 hours, WST-1, OD450 nm, read-out: cell viability (survival rate), HepG2): 94.4%; viability at 10 µM ([7]; A-375, drug 10 μM, 72 hours, WST-1, OD450 nm, read-out: cell viability (survival rate), A375): 70.6%; viability at 10 µM ([8]; drug 10 μM, 72 hours, WST-1, OD450 nm, read-out: cell viability (survival rate), HeLa): 94%; viability at 10 µM ([9]; drug 10 μM, 72 hours, WST-1, OD450 nm, read-out: cell viability (survival rate), PC3): 99.6%; viability at 10 µM ([10]; drug 10 μM, 72 hours, WST-1, OD450 nm, read-out: cell viability (survival rate), TSGH): 102%; viability at 10 µM ([11]; HL-60, drug 10 μM, 72 hours, WST-1, OD450 nm, read-out: cell viability (survival rate), HL-60): 111% |
| NC[C@@H]1O[C@H](O[C@H]2[C@@H](O)[C@H](O[C@@H]3[C@@H](O)[C@H](N)C[C@H](N)[C@H]3O[C@H]3O[C@H](CO)[C@@H](O)[C@H](O)[C@H]3N)O[C@@H]2CO)[C@H](N)[C@@H](O)[C@@H]1O [Paromomycin Sulfate] | significant inhibition effect | 99 | 78.2 | 80.2 | 92.1 |  | 67.1 | 91.4 | 96.2 | 146 | 106 | 87.1 | 112 |  |
| Oc1ccc(C=Cc2cc(O)cc(O)c2)cc1 [Resveratrol] | significant inhibition effect | 54.6 | 72.5 | 47.9 | 91.8 |  | 83.2 | 53 | 108 | 75 | 85.3 | 76.4 | 71.8 |  |
